{
  "source": "patent US20240180834A1",
  "about": "“DEVELOPMENT OF COVID-19 VACCINE USING A DUAL TLR LIGAND LIPOSOME ADJUVANT” (priority 2021, published 2024)",
  "origin": "cited, not measured here",
  "details": "earlier work",
  "data": [
    {"smiles": "CCCCCCCCCCCCCCCCCC(=O)NCCCCOn1c(CCCC)nc2c(N)nc3ccccc3c21", "note": "[3M-052, N-[4-(4-amino-2-butylimidazo[4,5-c]quinolin-1-yl)oxybutyl]octadecanamide]", "values": [
      {"measurement": "type of immune response elicited by the TLR agonist in the nanoliposome adjuvant", "value": "elicited a robust systemic Th1 response"}
    ]}
  ]
}
